Results on 3 molecules are retold here after PubChem BioAssay AID588665 (The Scripps Research Institute Molecular Screening Center, 2011).

Active and inactive are the calls of the source.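 The calls were made as follows: active = EGR1 protein level in colon cancer cells shifted at least 30% from solvent-only cells, up or down; inactive = shift under 30% either way.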

The test concerns the target Early growth response protein 1 (Homo sapiens) (UniProt P18146). Briefly: altered EGR1 protein amount, SW620 – cell-based, SW620 colorectal carcinoma, chemiluminescent western blot, counter-screen for KLF5 inhibitor project, late-stage follow-up (AID 588665). To be noted: SW620 EGR1 protein level, 24 h, at 10 µM, active compounds read high. Background: A western blot detects proteins with antibodies after separation by electrophoresis.

Early growth response protein 1 (Homo sapiens), sequence (P18146 whole entry, looked up): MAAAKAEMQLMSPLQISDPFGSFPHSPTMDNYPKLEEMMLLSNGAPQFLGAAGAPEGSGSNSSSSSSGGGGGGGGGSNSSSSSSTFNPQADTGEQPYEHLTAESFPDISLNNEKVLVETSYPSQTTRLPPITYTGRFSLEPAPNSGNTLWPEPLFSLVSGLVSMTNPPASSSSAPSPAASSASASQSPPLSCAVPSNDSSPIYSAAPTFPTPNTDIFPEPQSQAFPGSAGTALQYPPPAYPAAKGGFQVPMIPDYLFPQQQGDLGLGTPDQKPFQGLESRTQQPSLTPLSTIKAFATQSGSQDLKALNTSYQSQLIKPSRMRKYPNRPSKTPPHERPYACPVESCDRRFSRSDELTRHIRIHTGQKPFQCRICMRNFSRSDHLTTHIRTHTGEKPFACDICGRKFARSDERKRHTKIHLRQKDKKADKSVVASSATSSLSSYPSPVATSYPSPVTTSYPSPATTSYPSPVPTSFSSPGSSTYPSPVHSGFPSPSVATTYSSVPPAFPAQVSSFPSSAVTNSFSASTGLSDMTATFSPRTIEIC

Broadly, the inhibition is the drop in the measured response relative to a control, in per cent. In the case of `CN(C(=O)CNC(=O)/C=C/c1cccc(Cl)c1)C1CCS(=O)(=O)C1` (stereo not drawn), the inhibition was -24.8% (inactive).
The value for `CN(C(=O)CNC(=O)/C=C/c1cccc(Cl)c1)C1CCS(=O)(=O)CC1` was 37%; that for `CN(C(=O)COC(=O)/C=C/c1cccc([N+](=O)[O-])c1)C1CCS(=O)(=O)C1` (stereo not drawn) was -14.8% (inactive).
